Laboratory results published in patent US20230381249A1, “PROBIOTIC STRAIN FOR COUNTERING CARIES PATHOGENS” (The Governing Council of the University of Toronto, priority 2022, published 2023).

B1: SalE4: Multipeptide lantibiotic bacteriocin of VAR6 composed of Pep1, Pep2, Pep3 and Pep4 (SEQ ID NOs 5-8) (protein, listed as Streptococcus salivarius)
chain 1: MAKNTSRPEIDSLSFEVENQELSGKSGSGWFTAVQLTLAGRCGRWFTGSFECTTNNVKCG
chain 2: MRKNNNRKEIDTLDFEVKNQELSGKSGSGWFTAVQLTLAGRCGRWFTGSYECTTNNVKCG
chain 3: MKSKKVNTEIDTLEFEIDNQELNGTSGSGWWYTAFKMTLAGRCGLCFTCSYECTTNNVHC
chain 4: MKQDNFEIDSLDYEINSQELNGKSAAGWSTAVRLTVQGRCGWWFTHSYECTSPNVRCG
modifications: lantibiotic post-translational modifications

Test system: S. mutans S125 biofilms
Assay: Static microtiter plate biofilm killing assay, mono-species
Type: cell-based, Streptococcus mutans
Conditions: for Biofilm cells killed: 24-h-old S. mutans S125 biofilm, strains 10^7 CFU/ml, chlorhexidine 10X MIC
Method: Static biofilms of S. mutons were developed on polystyrene microtiter plates by inoculating 300 μl of BHI medium with 10 μl (10^6 CFU/ml) of S. mutons S125 from an overnight culture. After 24 h of growth, the planktonic phase was carefully removed, and fresh bacteriocin-producing medium (BAC7, BAC8) containing chlorhexidine (10×MIC), BLIS M18® (10^7 CFU/ml), BLIS K12® (10^7 CFU/ml) or VAR6 (10^7 CFU/ml) was overlayed onto established biofilms and the plates were incubated for 24 h at 37° C. The upper phase was then removed, and the biofilms were washed with sterile phosphate-buffered saline (PBS, pH 7.2) and dislodged by gentle scraping using sterile pipette tips. Biofilm cells were serially diluted and plated on BHI-erythromycin agar plates. Colonies of S. mutons were counted after 48 h of incubation at 37° C. in air with 5% CO2. All assays were performed in triplicate from three independent cultures. For the fungal-bacterial assay, biofilms were developed in Yeast extract-Peptone-Glycerol (YPG) medium and using a mixture of S. mutons/Candida albicans at a ratio of 1:1. For the dental plaque assay, biofilms were developed in BHI broth and using BHI plaque suspension supplemented with S. mutons (approx. 10^5 CFU/ml).

| Molecule | Biofilm cells killed (24 h treatment in BAC7) | Biofilm cells killed (24 h treatment in BAC8) | Killing of S. mutans and inhibition of S. mutans biofilm growth (BAC7 and BAC8 medium, and in situ in the mouth of an individual) |
| --- | --- | --- | --- |
| [H]/N=C(\N/C(=N/[H])NCCCCCCNC(=N)NC(=N)Nc1ccc(Cl)cc1)Nc1ccc(Cl)cc1 [chlorhexidine] | 91.6%±3.29 | 90.1%±2.89 | – |
| B1 | – | – | kill S. mutans, and inhibit the growth of S. mutans biofilms |
